ChEMBL document CHEMBL5528042, “Identification of Novel, Selective Ataxia-Telangiectasia Mutated Kinase Inhibitors with the Ability to Penetrate the Blood-Brain Barrier: The Discovery of AZD1390” (J Med Chem, 2024)
≈ marks a conversion by molar mass, not a printed value.

Key:
[1] = Bioavailability in rat at 1 mg/kg,po or 0.5 mg/kg,iv administration measured for 24 hrs by LC-MS/MS analysis; format: ADME, organism-based; conditions: in vivo
[2] = Volume of distribution at steady state in dog at 2 mg/kg,po or 1 mg/kg,iv administration measured for 24 hrs by LC-MS/MS analysis; format: ADME, organism-based, Canis lupus familiaris; conditions: in vivo
[3] = Dissociation constant, pKa of compound; format: physicochemical
[4] = Bioavailability in dog at 2 mg/kg,po or 1 mg/kg,iv administration measured for 24 hrs by LC-MS/MS analysis; format: ADME, organism-based, Canis lupus familiaris; conditions: in vivo
[5] = Volume of distribution at steady state in rat at 1 mg/kg,po or 0.5 mg/kg,iv administration measured for 24 hrs by LC-MS/MS analysis; format: ADME, organism-based; conditions: in vivo
[6] = molecular target: Serine/threonine-protein kinase ATR (Homo sapiens, UniProt Q13535); test: Inhibition of ATR in human HT-29 cells incubated for 2 hrs by Alexa Fluor 488/Hoeschst staining based plate reader assay; format: cell-based
[7] = Lipophilicity, logD of the compound at pH 7.4; format: physicochemical; conditions: buffer
[8] = Intrinsic clearance in human hepatocyte assessed per 10^6 cells; format: ADME, cell-based; conditions: hepatocytes, read-out: CLH
[9] = Aqueous solubility of the compound in pH 7.4; format: physicochemical; conditions: buffer
[10] = Intrinsic clearance in rat hepatocyte assessed per 10^6 cells; format: ADME, cell-based; conditions: hepatocytes, read-out: CLH
[11] = Apparent permeability across apical to basolateral side in dog MDCKII-MDR1 cells overexpressing BCRP at 0.1 uM incubated for 90 mins by LC-MS/MS analysis; format: ADME, cell-based, Canis lupus familiaris, MDCK-MDR1
[12] = Apparent permeability across apical to basolateral side in dog MDCKII-MDR1 cells overexpressing BCRP at 1 uM incubated for 90 mins by LC-MS/MS analysis; format: ADME, cell-based, Canis lupus familiaris, MDCK-MDR1
[13] = Tmax in Cynomolgus monkey at iv administered as bolus injection measured at 4 to 90 mins by gamma counter analysis; format: ADME, organism-based, Macaca fascicularis; conditions: in vivo, time 4-90 min
[14] = Half life in rat at 1 mg/kg,po or 0.5 mg/kg,iv administration measured for 24 hrs by LC-MS/MS analysis; format: ADME, organism-based; conditions: in vivo
[15] = Plasma protein binding in dog assessed as unbound fraction incubated for 16 hrs by equilibrium dialysis based UPLC-MS/MS analysis; format: ADME, cell-free, Canis lupus familiaris
[16] = Plasma protein binding in rat assessed as unbound fraction incubated for 16 hrs by equilibrium dialysis based UPLC-MS/MS analysis; format: ADME, cell-free
[17] = molecular target: Serine/threonine-protein kinase mTOR (Homo sapiens, UniProt P42345); test: Inhibition of mTOR in human MDA-MB-468 cells incubated for 2.5 hrs by Alexa Fluor 488 staining based fluorescence analysis; format: cell-based
[18] = molecular target: DNA-dependent protein kinase catalytic subunit (Homo sapiens, UniProt P78527); test: Inhibition of DNA-PK (unknown origin)
[19] = Half life in dog at 2 mg/kg,po or 1 mg/kg,iv administration measured for 24 hrs by LC-MS/MS analysis; format: ADME, organism-based, Canis lupus familiaris; conditions: in vivo
[20] = Plasma protein binding in human assessed as unbound fraction incubated for 16 hrs by equilibrium dialysis based UPLC-MS/MS analysis; format: ADME, cell-free
[21] = molecular target: Phosphatidylinositol 4,5-bisphosphate 3-kinase catalytic subunit alpha isoform (Homo sapiens, UniProt P42336); test: Inhibition of PI3Kalpha in human BT-474 cells incubated for 140 mins by ELISA; format: cell-based
Chain of Phosphatidylinositol 4,5-bisphosphate 3-kinase catalytic subunit alpha isoform (P42336 whole entry, canonical isoform): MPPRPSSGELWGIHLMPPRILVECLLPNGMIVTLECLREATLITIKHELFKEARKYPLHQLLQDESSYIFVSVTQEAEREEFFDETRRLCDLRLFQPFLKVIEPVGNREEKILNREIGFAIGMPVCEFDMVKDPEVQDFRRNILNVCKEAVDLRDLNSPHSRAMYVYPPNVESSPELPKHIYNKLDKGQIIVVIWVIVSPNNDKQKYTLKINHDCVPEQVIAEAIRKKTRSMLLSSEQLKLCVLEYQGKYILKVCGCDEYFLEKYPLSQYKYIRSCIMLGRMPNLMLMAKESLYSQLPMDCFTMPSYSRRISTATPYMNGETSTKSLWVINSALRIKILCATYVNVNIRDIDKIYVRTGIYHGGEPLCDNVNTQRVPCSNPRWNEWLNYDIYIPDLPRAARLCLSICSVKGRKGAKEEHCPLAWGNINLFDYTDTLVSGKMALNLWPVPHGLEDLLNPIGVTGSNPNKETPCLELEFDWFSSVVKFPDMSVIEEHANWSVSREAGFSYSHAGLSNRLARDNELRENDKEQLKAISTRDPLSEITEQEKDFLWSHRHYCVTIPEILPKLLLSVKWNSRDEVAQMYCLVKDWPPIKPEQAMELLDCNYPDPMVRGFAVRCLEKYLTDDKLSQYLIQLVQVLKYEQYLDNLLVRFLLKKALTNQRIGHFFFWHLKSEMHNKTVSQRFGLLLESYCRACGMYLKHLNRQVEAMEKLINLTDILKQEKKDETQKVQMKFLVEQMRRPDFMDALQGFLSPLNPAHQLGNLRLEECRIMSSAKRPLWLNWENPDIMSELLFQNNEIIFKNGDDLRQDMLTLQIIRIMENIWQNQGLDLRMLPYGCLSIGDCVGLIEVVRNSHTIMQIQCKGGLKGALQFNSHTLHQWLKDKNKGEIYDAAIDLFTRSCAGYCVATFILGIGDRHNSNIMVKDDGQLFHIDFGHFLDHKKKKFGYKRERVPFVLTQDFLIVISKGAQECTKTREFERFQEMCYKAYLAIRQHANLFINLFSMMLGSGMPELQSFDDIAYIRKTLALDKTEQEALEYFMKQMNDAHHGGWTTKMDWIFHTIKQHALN

Chain of Serine/threonine-protein kinase ATR (Q13535 whole entry): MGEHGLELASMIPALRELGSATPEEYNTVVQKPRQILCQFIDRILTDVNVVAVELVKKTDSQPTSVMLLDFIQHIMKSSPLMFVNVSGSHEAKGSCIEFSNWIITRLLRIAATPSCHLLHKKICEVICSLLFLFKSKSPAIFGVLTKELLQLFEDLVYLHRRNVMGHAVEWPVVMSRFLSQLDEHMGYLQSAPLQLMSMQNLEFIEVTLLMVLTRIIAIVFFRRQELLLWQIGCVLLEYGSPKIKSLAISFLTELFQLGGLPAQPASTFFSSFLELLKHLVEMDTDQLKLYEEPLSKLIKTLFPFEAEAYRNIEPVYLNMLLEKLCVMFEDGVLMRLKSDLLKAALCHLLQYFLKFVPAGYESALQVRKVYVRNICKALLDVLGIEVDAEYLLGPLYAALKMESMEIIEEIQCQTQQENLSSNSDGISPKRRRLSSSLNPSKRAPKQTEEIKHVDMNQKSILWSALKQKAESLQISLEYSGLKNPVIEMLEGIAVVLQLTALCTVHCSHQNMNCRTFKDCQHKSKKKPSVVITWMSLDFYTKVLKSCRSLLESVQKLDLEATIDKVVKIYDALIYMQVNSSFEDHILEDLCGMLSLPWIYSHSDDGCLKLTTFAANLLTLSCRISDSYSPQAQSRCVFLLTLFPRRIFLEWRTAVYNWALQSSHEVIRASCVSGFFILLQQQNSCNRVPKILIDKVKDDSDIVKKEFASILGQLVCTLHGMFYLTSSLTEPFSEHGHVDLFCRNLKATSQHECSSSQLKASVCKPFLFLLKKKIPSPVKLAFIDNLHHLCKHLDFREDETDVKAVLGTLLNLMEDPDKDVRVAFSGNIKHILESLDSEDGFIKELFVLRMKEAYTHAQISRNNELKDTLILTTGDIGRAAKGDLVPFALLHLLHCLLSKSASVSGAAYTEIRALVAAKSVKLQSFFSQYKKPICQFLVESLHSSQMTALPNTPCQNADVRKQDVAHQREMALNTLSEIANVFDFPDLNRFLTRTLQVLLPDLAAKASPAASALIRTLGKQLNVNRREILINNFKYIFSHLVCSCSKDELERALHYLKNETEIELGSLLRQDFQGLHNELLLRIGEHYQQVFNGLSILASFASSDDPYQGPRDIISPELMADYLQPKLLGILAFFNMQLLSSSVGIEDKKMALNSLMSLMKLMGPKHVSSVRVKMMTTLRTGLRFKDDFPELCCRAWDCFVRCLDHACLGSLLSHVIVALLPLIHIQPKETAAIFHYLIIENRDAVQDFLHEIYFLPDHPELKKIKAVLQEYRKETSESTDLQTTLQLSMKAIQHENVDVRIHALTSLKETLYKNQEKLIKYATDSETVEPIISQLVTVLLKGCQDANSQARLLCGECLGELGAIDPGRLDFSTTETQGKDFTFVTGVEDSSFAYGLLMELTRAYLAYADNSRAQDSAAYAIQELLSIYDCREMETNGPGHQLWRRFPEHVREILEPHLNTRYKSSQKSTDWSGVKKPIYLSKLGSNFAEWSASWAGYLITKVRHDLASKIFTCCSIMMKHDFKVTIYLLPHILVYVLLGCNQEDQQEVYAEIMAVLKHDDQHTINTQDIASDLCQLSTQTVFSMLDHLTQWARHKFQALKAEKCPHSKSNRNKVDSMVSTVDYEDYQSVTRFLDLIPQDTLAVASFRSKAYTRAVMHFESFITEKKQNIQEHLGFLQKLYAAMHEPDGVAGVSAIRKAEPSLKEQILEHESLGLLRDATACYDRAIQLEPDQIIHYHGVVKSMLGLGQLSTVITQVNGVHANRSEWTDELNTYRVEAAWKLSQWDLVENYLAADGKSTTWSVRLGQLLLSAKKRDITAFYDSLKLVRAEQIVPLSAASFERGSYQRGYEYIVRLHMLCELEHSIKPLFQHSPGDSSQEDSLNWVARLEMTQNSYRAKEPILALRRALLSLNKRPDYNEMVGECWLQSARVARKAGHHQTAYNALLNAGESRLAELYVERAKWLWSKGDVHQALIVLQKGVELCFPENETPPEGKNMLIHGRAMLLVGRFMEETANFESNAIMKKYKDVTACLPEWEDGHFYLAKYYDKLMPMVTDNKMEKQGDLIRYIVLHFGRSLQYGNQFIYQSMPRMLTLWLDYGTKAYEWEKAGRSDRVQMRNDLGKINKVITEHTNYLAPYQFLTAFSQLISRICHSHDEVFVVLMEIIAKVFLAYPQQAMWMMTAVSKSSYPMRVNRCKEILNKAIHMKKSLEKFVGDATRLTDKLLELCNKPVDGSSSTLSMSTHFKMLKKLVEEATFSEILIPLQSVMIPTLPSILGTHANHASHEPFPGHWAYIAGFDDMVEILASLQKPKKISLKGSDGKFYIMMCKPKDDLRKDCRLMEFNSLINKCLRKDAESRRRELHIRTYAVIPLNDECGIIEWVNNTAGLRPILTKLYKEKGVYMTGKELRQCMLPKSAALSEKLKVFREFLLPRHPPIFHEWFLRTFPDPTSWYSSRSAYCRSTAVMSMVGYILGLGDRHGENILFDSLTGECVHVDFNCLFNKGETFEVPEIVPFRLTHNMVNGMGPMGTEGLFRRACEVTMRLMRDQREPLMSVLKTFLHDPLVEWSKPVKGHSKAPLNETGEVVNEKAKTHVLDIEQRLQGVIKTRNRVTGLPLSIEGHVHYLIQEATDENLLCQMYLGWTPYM

SMILES | IC50 [6] | logD [7] | hepatocyte CLint [8] | solubility [9] | hepatocyte CLint [10] | Papp A→B at […], 0.1 µM [11] | Papp A→B at […], 1 µM [12] | other results
CN(C)CCCOc1ccc(-c2ccc3ncc4c(c3c2)n(C2CCOCC2)c(=O)n4C)cn1 |  |  |  |  |  |  |  | bioavailability [1]: 57%; Vdss [2]: 18 L/kg; pKa [3]: 9.4; bioavailability [4]: 54%; Vdss [5]: 4.3 L/kg
COCc1ccc(-c2ccc3ncc4c(c3c2)n(C2CCOCC2)c(=O)n4C)cn1 | > 12.6 µM | 2.3 | < 3 µL/min/1e6 cells | 19 µM (≈ 7.68 µg/mL) |  |  |  | 
COCc1ccc(-c2ccc3ncc4c(c3c2)n([C@H]2CCCOC2)c(=O)n4C)cn1 |  | 2.5 | 3.2 µL/min/1e6 cells | 125 µM (≈ 50.6 µg/mL) | 28 µL/min/1e6 cells | 35 ×10⁻⁶ cm/s | 27 ×10⁻⁶ cm/s | 
CN(C)CCCOc1ccc(-c2ccc3ncc4c(c3c2)n(C2CCOCC2)c(=O)n4[11CH3])cn1 |  |  |  |  |  |  |  | Tmax [13]: 0.333 h
CC(C)n1c(=O)n(C)c2cnc3ccc(-c4ccc(O[C@H]5CCN(C)C5)nc4)cc3c21 |  | 2.4 | 6.2 µL/min/1e6 cells | > 1000 µM | 15 µL/min/1e6 cells |  | 27 ×10⁻⁶ cm/s | 
CC(C)n1c(=O)n(C)c2cnc3ccc(-c4ccc(N5CC(N(C)C)C5)nc4)cc3c21 |  | 3 | 4.8 µL/min/1e6 cells | 10 µM (≈ 4.17 µg/mL) | 44 µL/min/1e6 cells | 18 ×10⁻⁶ cm/s | 32 ×10⁻⁶ cm/s | pKa [3]: 7.1
CC(C)n1c(=O)n(C)c2cnc3ccc(-c4ccc(N5CC[C@H](N(C)C)C5)nc4)cc3c21 |  | 3 | 3.8 µL/min/1e6 cells | 137 µM (≈ 59 µg/mL) | 25 µL/min/1e6 cells |  | 22 ×10⁻⁶ cm/s | 
CC(C)n1c(=O)n(C)c2cnc3ccc(-c4ccc(N5CC6(CN(C)C6)C5)nc4)cc3c21 | > 31.6 µM | 1.7 | < 1 µL/min/1e6 cells | 928 µM (≈ 398 µg/mL) | 2.4 µL/min/1e6 cells |  | 6 ×10⁻⁶ cm/s | 
CO[C@H]1CC[C@H](n2c(=O)n(C)c3cnc4ccc(-c5ccc(OCCCN(C)C)cc5)cc4c32)C1 |  | 2.7 | 8.7 µL/min/1e6 cells | 604 µM (≈ 287 µg/mL) | 8.7 µL/min/1e6 cells | 9.7 ×10⁻⁶ cm/s | 18 ×10⁻⁶ cm/s | 
CO[C@H]1C[C@H](n2c(=O)n(C)c3cnc4ccc(-c5ccc(OCCCN6CCCCC6)nc5)cc4c32)C1 |  | 2.4 | 2.6 µL/min/1e6 cells | > 1000 µM | 6.6 µL/min/1e6 cells | 17 ×10⁻⁶ cm/s |  | bioavailability [1]: 19%; half-life [14]: 4 h; fraction unbound at 16 h [15]: 0.22; fraction unbound at 16 h [16]: 0.04; IC50 [17]: > 1.26 µM; fraction unbound at 16 h [20]: 0.19; Vdss [5]: 2.4 L/kg; IC50 [21]: 2 µM
COCc1ccc(-c2ccc3ncc4c(c3c2)n([C@@H]2CCOCC2(C)C)c(=O)n4C)cn1 |  | 2.7 | < 1 µL/min/1e6 cells | 521 µM (≈ 225 µg/mL) | 12 µL/min/1e6 cells | 39 ×10⁻⁶ cm/s |  | bioavailability [1]: 39%; Vdss [2]: 3.7 L/kg; half-life [14]: 1.1 h; fraction unbound at 16 h [15]: 0.23; fraction unbound at 16 h [16]: 0.14; IC50 [17]: 0.501 µM; IC50 [18]: 1.58 µM; half-life [19]: 3.3 h; fraction unbound at 16 h [20]: 0.08; bioavailability [4]: 9%; Vdss [5]: 1.9 L/kg; IC50 [21]: > 5.01 µM
Cn1c(=O)n(C2CCOCC2)c2c3cc(-c4ccc(OCCCN5CCCCC5)cc4)ccc3ncc21 | > 15.8 µM | 2.5 | 2.9 µL/min/1e6 cells | 88 µM (≈ 44.1 µg/mL) | 5.3 µL/min/1e6 cells | 7.5 ×10⁻⁶ cm/s | 13 ×10⁻⁶ cm/s | 
COCc1ccc(-c2ccc3ncc4c(c3c2)n([C@H]2C[C@@H](CO)C2)c(=O)n4C)cn1 |  | 2 | 3.5 µL/min/1e6 cells | 990 µM (≈ 400 µg/mL) | 20 µL/min/1e6 cells |  | 3.2 ×10⁻⁶ cm/s | 
CN(C)CCCOc1ccc(-c2ccc3ncc4c(c3c2)n([C@@H]2CCCOC2)c(=O)n4C)cc1 | > 31.6 µM | 2.4 | 7.9 µL/min/1e6 cells | 851 µM (≈ 392 µg/mL) | 8.1 µL/min/1e6 cells | 9.7 ×10⁻⁶ cm/s | 22 ×10⁻⁶ cm/s | 
COCc1ccc(-c2ccc3ncc4c(c3c2)n([C@@H]2CC[C@@H](OC)C2)c(=O)n4C)cn1 (relative stereo) |  | 3 | 5.3 µL/min/1e6 cells | 789 µM (≈ 330 µg/mL) | 40 µL/min/1e6 cells | 37 ×10⁻⁶ cm/s | 24 ×10⁻⁶ cm/s | 

The next lines start with results.

IC50 [6] | logD [7] | hepatocyte CLint [8] | solubility [9] | hepatocyte CLint [10] | Papp A→B at […], 0.1 µM [11] | Papp A→B at […], 1 µM [12] | SMILES | other results
> 31.6 µM | 2.7 | 18 µL/min/1e6 cells | 323 µM (≈ 135 µg/mL) | 46 µL/min/1e6 cells |  | 24 ×10⁻⁶ cm/s | CC(C)n1c(=O)n(C)c2cnc3ccc(-c4ccc(OCCCN(C)C)cc4)cc3c21 | 
> 31.6 µM | 2.1 | 6.7 µL/min/1e6 cells | 680 µM (≈ 298 µg/mL) | 13 µL/min/1e6 cells | 23 ×10⁻⁶ cm/s | 56 ×10⁻⁶ cm/s | CC(C)n1c(=O)n(C)c2cnc3cc(F)c(-c4ccc(OCCCN(C)C)nc4)cc3c21 | bioavailability [1]: 48%; Vdss [2]: 18 L/kg; half-life [14]: 3.2 h; fraction unbound at 16 h [15]: 0.42; fraction unbound at 16 h [16]: 0.17; IC50 [17]: > 31.6 µM; IC50 [18]: > 31.6 µM; half-life [19]: 6.4 h; fraction unbound at 16 h [20]: 0.32; bioavailability [4]: 31%; Vdss [5]: 4.1 L/kg; IC50 [21]: 15.8 µM
 | 2.7 | 34 µL/min/1e6 cells | 42 µM (≈ 15.2 µg/mL) | 9 µL/min/1e6 cells | 39 ×10⁻⁶ cm/s |  | COCc1ccc(-c2ccc3ncc4c(c3c2)n(C(C)C)c(=O)n4C)cn1 | 
> 15.8 µM | 1.9 | 2.1 µL/min/1e6 cells | 39 µM (≈ 16.9 µg/mL) | 19 µL/min/1e6 cells | 5 ×10⁻⁶ cm/s |  | CC(C)n1c(=O)n(C)c2cnc3ccc(-c4ccc(OCCCCN(C)C)nc4)cc3c21 | 
 | 2.6 | 2.4 µL/min/1e6 cells | 826 µM (≈ 380 µg/mL) | 5.8 µL/min/1e6 cells |  | 25 ×10⁻⁶ cm/s | CC(C)n1c(=O)n(C)c2cnc3ccc(-c4ccc(OCCCN5CCCCC5)nc4)cc3c21 | 
> 31.6 µM | 1.7 | 5.7 µL/min/1e6 cells | > 1000 µM | 15 µL/min/1e6 cells | 15 ×10⁻⁶ cm/s | 23 ×10⁻⁶ cm/s | CC(C)n1c(=O)n(C)c2cnc3ccc(-c4ccc(OC[C@@H]5CCN(C)C5)nc4)cc3c21 | 
> 25.1 µM | 2.1 | 6.1 µL/min/1e6 cells | 421 µM (≈ 171 µg/mL) | 24 µL/min/1e6 cells |  | 52 ×10⁻⁶ cm/s | CC(C)n1c(=O)n(C)c2cnc3ccc(-c4ccc(OCCN(C)C)nc4)cc3c21 | 
> 31.6 µM | 3.2 | 6.5 µL/min/1e6 cells | 17 µM (≈ 7.39 µg/mL) | 22 µL/min/1e6 cells | 17 ×10⁻⁶ cm/s | 19 ×10⁻⁶ cm/s | CC(C)n1c(=O)n(C)c2cnc3cc(F)c(-c4ccc(N5CCN(C)CC5)nc4)cc3c21 | pKa [3]: 7.8
> 31.6 µM | 2.4 | 2.4 µL/min/1e6 cells | 787 µM (≈ 364 µg/mL) | 6.3 µL/min/1e6 cells | 9.4 ×10⁻⁶ cm/s | 22 ×10⁻⁶ cm/s | CC(C)n1c(=O)n(C)c2cnc3cc(F)c(-c4ccc(N5CCC(N(C)C)CC5)nc4)cc3c21 | pKa [3]: 9.1
